The text below walks through data of PMC5537347, “A short D-enantiomeric antimicrobial peptide with potent immunomodulatory and antibiofilm activity against multidrug-resistant Pseudomonas aeruginosa and Acinetobacter baumannii” (Scientific Reports, 2017).

The term MIC denotes the lowest concentration that inhibits growth of the organism. A high value points to a less susceptible organism. By MIC50 is commonly meant the lowest concentration that inhibits either 50% of growth or 50% of the strains tested, depending on the study. A high value points to lower susceptibility. In general, MIC90 refers to an inhibitory concentration at the 90% level, which refers to growth in some studies and to a panel of isolates in others. A low value points to greater potency.

Read-outs that look alike come from different tables or passages of the source.

Data set [1] relates to LPS-induced activation of the LAL enzyme (Limulus amoebocyte lysate). Nature of the data set: Binding of peptides to lipopolysaccharide (LAL assay). The class given is biochemical. The following applies: one EU of LPS, 37 °C, 30 minutes. The procedure:
Figure 3 Ability of peptides to neutralize LPS and reduce inflammatory cytokines expression. (A) LPS binding activity of peptides. Peptides at different concentrations were incubated with one endotoxin unit (EU) of LPS at 37 °C for 30 minutes. […] The binding of peptides with LPS is expressed as percent change relative to the untreated samples. (B) Anti-inflammatory effect of peptides on LPS-stimulated macrophages. J774A.1 cells were stimulated with LPS (150 ng/mL final concentration) in the presence of different concentrations of peptides. Cells stimulated with LPS alone and untreated cells served as controls. Cells were incubated for six hours at 37 °C before the supernatant from each treatment group was collected. Detection of tumor necrosis factor-α (TNF-α) and interleukin-6 (IL-6) in supernatants was determined using ELISA. Cytokine levels are expressed as percent change relative to the LPS-stimulated control. Statistical analysis was calculated using one-way ANOVA, with post hoc Tukey’s multiple comparisons test. P < 0.05 was considered significant. One asterisk (*) indicates significant difference with the negative control.
To determine the peptides’ ability to bind to LPS, a Limulus amoebocyte lysate (LAL) kit (Genscript, USA Inc.) was utilized, as described in previous reports. The peptides were dissolved in pyrogen-free water and serially diluted in the same solvent. The peptides were then incubated with one endotoxin unit (EU) of LPS at 37 °C for 30 minutes in order to permit the peptides to bind LPS. The reaction mixture (50 μL) was added to 50 μL of LAL reagent, and further incubated for 10 minutes. Next, 100 μL of LAL chromogenic substrate was added. The mixture was incubated at 37 °C for six minutes. The optical density (at 545 nm) was determined using a microplate reader. Colistin was used as a positive control. The binding of peptides with LPS was expressed as the percent change relative to the untreated control.

For data set [2], the system named is C. elegans strain glp-4;sek 1. Nature of the data set: Toxicity of peptides in uninfected C. elegans. The class given is in vivo, Caenorhabditis elegans. The following applies: worms grown four days with peptide; D-RR4 and colistin at 8 × MIC. The procedure:
To test the efficacy of the synthetic peptides to protect against infections in vivo, we utilized a C. elegans model of bacterial infection. This model has been used extensively for early-stage evaluation of promising antimicrobials, [35], [36]. Initially, the lethal dose of D-RR4 against uninfected nematodes was determined.
(A) Evaluation of toxicity of peptides in Caenorhabditis elegans. C. elegans strain glp-4;sek 1 was grown for four days in the presence of peptides at different concentrations. Worms were monitored daily and the live worms were counted. Results are expressed as a Kaplan-Meier survival curve. (B) Evaluation of antimicrobial activity of peptides to reduce the bacterial CFU inside infected Caenorhabditis elegans. C. elegans strain glp-4; sek 1 were infected with P. aeruginosa PAO1, colistin-resistant P. aeruginosa 1109, or A. baumannii ATCC BAA-1605. […] After treatment, worms were lysed and bacteria were counted. One asterisk (*) indicates significant difference with the negative control. Two asterisks (**) indicates significant difference with the monotherapy treatment (P < 0.05). Results are expressed as means from three biological replicates ± standard deviation. (C) Efficacy of peptides in a Caenorhabditis elegans model of bacterial infection. […] Worms were monitored daily and the live worms were counted. Results are expressed as a Kaplan-Meier survival curve. C. elegans receiving no treatment served as a negative control.

The subject of data set [3] is colistin-resistant P. aeruginosa isolated from cystic fibrosis patients. The text has this: (§1) The broth microdilution technique was utilized to assess the MIC of designed peptides according to the guidelines of the Clinical and Laboratory Standards Institute (CLSI)[37].
The subject of data set [4] is P. aeruginosa and A. baumannii isolates.
Excerpt: as §1

Colistin [reference compound]: the “inhibition of LPS-induced activation of the LAL enzyme” value in data set [1] (5 µM peptide) is recorded as 51.2%; in data set [1] (10 µM peptide), 83.0%; in data set [1] (15 µM peptide), “Complete inhibition”; in data set [1] (20 µM peptide), “Complete inhibition”. For the same substance, the “toxicity to uninfected worms” value in data set [2] is on record as “not toxic”. Further, the MIC in data set [3] (strain 1125) is listed as 32 µM; in data set [3] (strain 1131), 64 µM; in data set [3] (strain 1133) it was 32 µM; in data set [3] (strain 1603), 64 µM. For the same substance, the MIC50 in data set [4] (MIC that inhibited growth of 50% of all isolates (Table 2)) is 0.25 µM. In addition, the MIC90 in data set [4] (MIC that inhibited growth of 90% of all isolates (Table 2)) was determined as 0.5 µM.
